Test results reported in PMC2652713, “Molecular Blocking of CD23 Supports Its Role in the Pathogenesis of Arthritis” (PLoS ONE, 2009).
“Also recorded” adds a separate entry of the source.

Key:
[1] = test system: human CD23+ monocyte-derived macrophages; assay: Nitrite (NO) generation by CD23-activated human macrophages, Griess reaction; type: cell-based
Protocol: Figure 2 Inhibition of CD23-mediated activation of iNOS pathway in human macrophages by p30A. Human CD23^+ monocyte-derived macrophages were incubated with cross-linking CD23-McAb (20 µg/ml) alone or following 1 h pre-incubation with 10 µg/ml of various peptides. […] Expression of iNOS mRNA was compared to HPRT mRNA levels. (B) Inhibition of NO generation from human activated macrophages by synthetic peptides. Cell supernatants were collected 72 h following cell cultures and levels of nitrites were determined. […] Results are expressed as mean of 3 distinct donor cell preparations (SEM<20%). (C) Inducible NOS-mediated NO generation in human macrophages is decreased following pre-incubation with p30A or L-NIL prior to CD23-mediated activation. Results are expressed as mean±s.d. of 7 distinct donor cell preparations.
(§1) Monocytes or macrophages were activated through CD23 pathway: while monocytes/macrophages from RA patients express CD23, monocytes from healthy donors must be pre-activated to express surface CD23 as described. This pre-activation was obtained by incubation of healthy monocytes with recombinant human IL-4 (20 ng/ml) during 48 h at 37°C; After washing, all cell populations were tested by flow cytometry for their surface CD23 expression (>80% CD23^+) and then incubated in the presence of cross-linking CD23-MAb (clones 135 or DM2, IgG1k, 20 µg/ml) during 48–72 h, or IgE and anti-IgE as described, [17]. When indicated, peptides were added to the cells 2 h prior to their activation. Cells supernatants were then analyzed for their nitric oxide content (see below) and for the presence of cytokines: levels of TNF-α and IL-6 were determined in duplicates for each sample by a specific ELISA (R&D, Paris, France) while levels of IL-1β, IL-8 and IL-10 was determined using FlowCytomix Human Th1/Th2 Kit as recommended (Bender Medsystems, Vienna, Austria).
Culture supernatants (72 h) were assayed for the stable end-product of NO, NO2 ^− using the Griess reaction modified as detailed elsewhere. Inhibitory analog of L-arginine, L-NIL (N(6)-(1-iminoethyl)-L-lysine/2HCl, Coger SA, Paris, France) was used to inhibit iNOS-mediated NO generation. This method gave a sensitivity limit of 0.2 µM if low NO2 ^− medium (DMEM) was used. Total RNA was isolated as above from peritoneal macrophages. Reverse transcription-PCR was performed with an automatic thermal cycler (iCycler, Biorad) using the following specific primers: iNOS mRNA sense (5′-[…]-3′, exon 8) and iNOS mRNA antisense (5′-[…]-3′, exon 11). Hypoxanthine phosphoribosyltransferase (HPRT) mRNA sense (5′-[…]-3′) and HPRT mRNA antisense (5′-[…]- 3′) primers were used as controls. The iNOS messenger is represented by a 371-bp band, whereas a 496-bp band indicates the HPRT messenger.

[2] = test system: adjuvant-induced arthritis in rats; assay: Adjuvant-induced arthritis (AIA) clinical score in rats; type: in vivo, rat, Female Lewis
Protocol: Figure 6 Inhibition of in vitro and in vivo inflammatory responses in rats by p30A peptide. (A) Rat peritoneal macrophages were activated via CD23 antigens with/without p30A, L-NIL or pCtl. Cell supernatants were collected 48 h later and nitrite levels were quantified. Values are mean±s.d. of cells from 3 different rats. (B) Cumulative clinical score/rat obtained following 50 days post-immunization in all groups. AIA rats were treated either after or before (d0) the onset of symptoms. Treatment consisted of p30A, hydrocortisone (HC, 30 mg/rat)) or pCtl (100 mg/rat). Shown are means of cumulative score/rat±s.d. from 5 (HC) or 8 rats (other conditions). (C) Evolution of arthritis severity scores of adjuvant-induced arthritis (AIA) in rats treated with intracutaneous p30A or pCtl (100 mg/rat) or hydrocortisone (after the onset of clinical signs as illustrated by arrows (means from 8 rats, s.e.m.<20%). (D) Histopathologic analysis confirm p30A ability to decrease all components of AIA lesions: pannus formation and inflammation of the synovium (P), deformity of joint and bones (asterix), bone remodeling and destruction (arrowhead), bone neoformation (arrows) and cartilage destruction.
All animal procedures were performed in strict accordance with the guidelines issued by the European Economic Community “86/609”. Female Lewis rats (Janvier, Le Genest St Isle, France) were housed under standard laboratory conditions with free access to food and water. The temperature was kept at 22±2°C and a 12 hour light/dark schedule was maintained.
Adjuvant arthritis was induced in six week-old animals by subcutaneous injection at the base of the tail of 300 µl containing 1.8 mg of inactivated Mycobacterium butyricum (Difco Laboratories, Detroit, MI) diluted in emulsion of 8 ml Vaseline, 1 ml polysorbate 80, and 1 ml PBS (Phosphate Buffer Saline, Eurobio). Rats were boosted one week later following the same procedure. Observation was conducted for up to 50 days following immunization for clinical signs of arthritis. Rats were divided in different groups of 8 rats. Groups were treated with five injections (every 2 days) of either p30A (10, 50 or 100 mg in a PBS solution), pCtl, hydrocortisone (Sigma Aldrich) or PBS solution. Injections were initiated two days after the appearance of first arthritic symptoms (therapeutic) or on the first day of immunization (preventive). Evaluation of AIA severity was performed by two independent observers who where not aware of the study protocol. The severity of AIA in each paw was quantified daily using an ordinal clinical score measurement from 0 to 4 as follows: no signs of inflammation ( = 0); swelling alone (>2 fold paw diameter) ( = 1) or swelling/immobility ( = 2) of one paw; swelling ( = 3) or swelling/immobility ( = 4) of two paws. Weight evolution of rats was measured daily. Rats were sacrificed 50 days after AIA induction. Peritoneal macrophages were collected and incubated in culture medium alone for 48 h. Quantification of TNF-α and IL-1β in rat cell supernatants was performed using appropriate ELISA kits and according to manufacturer's recommendations (Biosource, Montrouge, France).

[3] = test system: human CD23+ macrophages; assay: IgE-mediated activation of human CD23+ macrophages; type: cell-based
Protocol: as §1

## FHENWPS [p30A]
[1]; CD23-McAb 20 µg/ml, 1 h pre-incubation with peptide, supernatants at 72 h, mean of 3 donors (SEM<20%)
  NO (nitrite) generation, dose-dependence: reversed by p30A in a dose-dependent manner; also recorded: Dose-dependent reduction of nitrites
[1]; pre-incubation prior to CD23-mediated activation, mean±s.d. of 7 donors (Figure 2C)
  iNOS-mediated NO generation: decreased
[2]; AIA rats, 50 days post-immunization, five intracutaneous doses every two days, 8 rats, p<0,0001
  cumulative clinical score vs non-treated rats: significantly improved the clinical course of AIA rats
[2]; AIA rats, hydrocortisone 30 mg/rat
  decrease of arthritic scores compared with hydrocortisone: more efficient than hydrocortisone in decreasing arthritic scores
[2]; AIA rats, p30A 10, 50 or 100 mg, five injections every 2 days
  arthritic signs, dose-dependence: decreased arthritic signs in rats in a dose-dependent manner
[2]; AIA rats, therapeutic or p30A-d0, p<0.0002
  effectiveness after disease onset or for prevention: effective either after disease onset or for the prevention
[2]; p30A administered prior to disease induction
  prevention of severe clinical signs: prevented the development of severe clinical signs in rats
[2]; rat model of arthritis
  clinical scores and bone destruction: ameliorates clinical scores and prevent bone destruction in a dose dependent manner
[2]; rat model of chronic arthritis, indirectly supports stability of p30A in vivo
  duration of dose-dependent effect: > one month
[3]
  IgE-mediated activation of human CD23+ macrophages: decreased IgE-mediated activation of both human and rat CD23^+ macrophages
